Among the data in article PMC9510826, “Catalytic promiscuity of O-methyltransferases from Corydalis yanhusuo leading to the structural diversity of benzylisoquinoline alkaloids” (Horticulture Research, 2022) are Km values, retold here.

For this assay, the target named is T1, CyOMT2 (Corydalis yanhusuo, UniProt Z9M545XIG0, L253C).
T1 sequence (Z9M545XIG0 1-349 L253C): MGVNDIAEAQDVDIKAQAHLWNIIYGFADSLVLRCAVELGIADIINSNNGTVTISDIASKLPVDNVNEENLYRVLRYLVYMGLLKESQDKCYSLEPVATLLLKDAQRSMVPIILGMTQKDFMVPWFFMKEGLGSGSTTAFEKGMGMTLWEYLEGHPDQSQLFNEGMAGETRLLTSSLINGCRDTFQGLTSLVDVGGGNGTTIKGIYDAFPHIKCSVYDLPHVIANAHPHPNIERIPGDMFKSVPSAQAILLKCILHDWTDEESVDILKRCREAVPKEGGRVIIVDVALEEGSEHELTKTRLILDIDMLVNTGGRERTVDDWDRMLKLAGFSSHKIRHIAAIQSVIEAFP
The assay is described as follows: UPLC product quantification, Michaelis-Menten fit. Type of assay: biochemical. The note with it: 200 μM SAM, 30 min. An excerpt: UPLC product quantification, Michaelis-Menten fit on CyOMT2

Usually Km stands for the substrate concentration at which the rate is half of its maximum. For `COc1cc2c(cc1O)[C@@H]1Cc3ccc(OC)c(O)c3CN1CC2` [compound 15, scoulerine], the Km (50 mM phosphate pH 7.0, 40°C) was 12.2 ± 1.72 µM.
On the same count and under the same terms, as for `COc1cc2c(cc1O)CC[n+]1cc3c(OC)c(OC)ccc3cc1-2` [compound 14, jatrorrhizine], the figure is 34.8 ± 3.7 µM.
In the case of `Oc1ccc(C[C@@H]2NCCc3cc(O)c(O)cc32)cc1` [compound 1, norcoclaurine], the Km (50 mM phosphate pH 7.5, 45°C) was 19.4 ± 3.39 µM.
